Source: patent US8163771B2, “11 β-HSD1 modulators” (Exelixis, Inc., priority 2008, dated 2012)

What follows are molecules tested against T1, recombinant human 11 β-HSD1 (Homo sapiens, UniProt P28845) (assay: 11 β-HSD1 SPA Assay (Scintillation Proximity Assay)).
T1 construct: made in house; host or cells: E. coli
Assay type: biochemical
Outline: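 E. coli-expressed human enzyme (30-100 nM) with tritiated cortisone 40 nM and NADPH 1 mM in HEPES buffer pH7.4, 2 hours at room temperature. Stopped with protein A SPA beads carrying anti-cortisol antibody and glycyrrhetinic acid; counted after overnight incubation. IC50 from percent inhibition between no-enzyme and no-compound signals.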

T1 sequence (P28845 whole entry): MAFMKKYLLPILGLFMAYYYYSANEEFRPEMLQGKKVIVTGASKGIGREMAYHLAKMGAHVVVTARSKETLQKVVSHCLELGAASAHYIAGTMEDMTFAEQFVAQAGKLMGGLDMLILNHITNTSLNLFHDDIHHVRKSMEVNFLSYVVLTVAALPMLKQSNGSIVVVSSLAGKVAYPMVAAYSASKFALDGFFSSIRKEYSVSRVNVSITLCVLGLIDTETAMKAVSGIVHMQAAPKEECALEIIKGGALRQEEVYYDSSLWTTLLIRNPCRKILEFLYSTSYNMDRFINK

`CC(C)(Oc1ccc(Cl)c(F)c1)C(=O)N[C@H]1C[C@H]2CC[C@@H](C1)N2c1ccc(C(=O)NCC(F)(F)F)cc1` [Example 167, 4-[3-endo-({2-[(4-chloro-3-fluorophenyl)oxy]-2-methylpropanoyl}amino)-8-azabicyclo[3.2.1]oct-8-yl]-N-(2,2,2-trifluoroethyl)benzamide] and `CC(C)(Oc1ccc(Cl)cc1Cl)C(=O)N[C@H]1C[C@H]2CC[C@@H](C1)N2c1ncc(C(=O)NCC(F)(F)F)cc1F` [Example 160, 6-[3-endo-({2-[(2,4-dichlorophenyl)oxy]-2-methylpropanoyl}amino)-8-azabicyclo[3.2.1]oct-8-yl]-5-fluoro-N-(2,2,2-trifluoroethyl)pyridine-3-carboxamide] cannot be ordered by IC50: < 200 nM for the first, < 200 nM for the second.

`C[C@H](NC(=O)c1ccc(N2C3CCC2CC(NC(=O)C(C)(C)Oc2ccc(F)cc2F)C3)nc1)C(F)(F)F` (stereo partly drawn) [Example 431, 6-(3-endo-{[2-(2,4-difluorophenoxy)-2-methylpropanoyl]amino}-8-azabicyclo[3.2.1]oct-8-yl)-N-[(2S)-1,1,1-trifluoropropan-2-yl]pyridine-3-carboxamide] and `C[C@H](NC(=O)c1ccc(N2C3CCC2CC(NC(=O)C(C)(C)Oc2ccc(Cl)cc2C(F)F)C3)nc1)C(F)(F)F` (stereo partly drawn) [Example 424, 6-[3-endo-({2-[4-chloro-2-(difluoromethyl)phenoxy]-2-methylpropanoyl}amino)-8-azabicyclo[3.2.1]oct-8-yl]-N-[(2S)-1,1,1-trifluoropropan-2-yl]pyridine-3-carboxamide] cannot be ordered by IC50: < 200 nM for the first, < 200 nM for the second.

`CC(C)NC(=O)c1ccc(N2[C@@H]3CC[C@H]2C[C@@H](NC(=O)C2(c4ccc(Cl)cc4)CC2)C3)nc1` [Example 12, 6-[3-endo-({[1-(4-chlorophenyl)cyclopropyl]carbonyl}amino)-8-azabicyclo[3.2.1]oct-8-yl]-N-(1-methylethyl)pyridine-3-carboxamide] and `O=C(NC1CC1)c1ccc(N2[C@@H]3CC[C@H]2C[C@@H](NC(=O)C2(c4ccccc4Cl)CC2)C3)nc1` [Example 17, 6-[3-endo-({[1-(2-chlorophenyl)cyclopropyl]carbonyl}amino)-8-azabicyclo[3.2.1]oct-8-yl]-N-cyclopropylpyridine-3-carboxamide] cannot be ordered by IC50: < 200 nM for the first, < 200 nM for the second.

`CC(C)(Sc1ccc(Cl)cc1Cl)C(=O)N[C@H]1C[C@H]2CC[C@@H](C1)N2c1ccc(S(C)(=O)=O)cn1` [Example 328, 2-[(2,4-dichlorophenyl)thio]-2-methyl-N-{8-[5-(methylsulfonyl)pyridin-2-yl]-8-azabicyclo[3.2.1]oct-3-endo-yl}propanamide] and `CC(C)(Oc1ncc(Cl)cc1Cl)C(=O)N[C@H]1C[C@H]2CC[C@@H](C1)N2c1ccc(S(N)(=O)=O)cn1` [Example 191, N-{8-[5-(aminosulfonyl)pyridin-2-yl]-8-azabicyclo[3.2.1]oct-3-endo-yl}-2-[(3,5-dichloropyridin-2-yl)oxy]-2-methylpropanamide] cannot be ordered by IC50: < 200 nM for the first, < 200 nM for the second.

`CC(C)(Oc1ccc(F)cn1)C(=O)N[C@H]1C[C@H]2CC[C@@H](C1)N2c1ccc(C(=O)NCC(F)(F)F)cn1` [Example 109, 6-[3-endo-({2-[(5-fluoropyridin-2-yl)oxy]-2-methylpropanoyl}amino)-8-azabicyclo[3.2.1]oct-8-yl]-N-(2,2,2-trifluoroethyl)pyridine-3-carboxamide] and `CC(C)(Oc1ccc(Cl)cc1F)C(=O)N[C@H]1C[C@H]2CC[C@@H](C1)N2c1ccc(C(=O)NCC(F)F)cn1` [Example 447, 6-(3-endo-{[2-(4-chloro-2-fluorophenoxy)-2-methylpropanoyl]amino}-8-azabicyclo[3.2.1]oct-8-yl)-N-(2,2-difluoroethyl)pyridine-3-carboxamide] cannot be ordered by IC50: < 200 nM for the first, < 200 nM for the second.

`CC(C)NC(=O)c1ccc(N2[C@@H]3CC[C@H]2C[C@@H](NC(=O)C(C)(C)Oc2ccc(F)cc2Cl)C3)nc1` [Example 70, 6-[3-endo-({2-[(2-chloro-4-fluorophenyl)oxy]-2-methylpropanoyl}amino)-8-azabicyclo[3.2.1]oct-8-yl]-N-(1-methylethyl)pyridine-3-carboxamide] and `CC(C)(Oc1ccc(F)cc1Cl)C(=O)N[C@H]1C[C@H]2CC[C@@H](C1)N2c1ccc(S(N)(=O)=O)cn1` [Example 158, N-{8-[5-(aminosulfonyl)pyridin-2-yl]-8-azabicyclo[3.2.1]oct-3-endo-yl}-2-[(2-chloro-4-fluorophenyl)oxy]-2-methylpropanamide] cannot be ordered by IC50: < 200 nM for the first, < 200 nM for the second.

`COc1ccc(OC(C)(C)C(=O)N[C@H]2C[C@H]3CC[C@@H](C2)N3c2ccc(S(C)(=O)=O)cn2)cc1` [Example 180, 2-methyl-2-{[4-(methyloxy)phenyl]oxy}-N-{8-[5-(methylsulfonyl)pyridin-2-yl]-8-azabicyclo[3.2.1]oct-3-endo-yl}propanamide] and `CC(C)(Oc1ccc(F)c(F)c1)C(=O)N[C@H]1C[C@H]2CC[C@@H](C1)N2c1ccc(S(N)(=O)=O)cn1` [Example 208, N-{8-[5-(aminosulfonyl)pyridin-2-yl]-8-azabicyclo[3.2.1]oct-3-endo-yl}-2-[(3,4-difluorophenyl)oxy]-2-methylpropanamide] cannot be ordered by IC50: < 200 nM for the first, < 2000 nM for the second.

`C[C@H](NC(=O)c1ccc(N2C3CCC2CC(NC(=O)C(C)(C)Oc2ccc(F)c(Cl)c2Cl)C3)nc1)C(F)(F)F` (stereo partly drawn) [Example 437, 6-(3-endo-{[2-(2,3-dichloro-4-fluorophenoxy)-2-methylpropanoyl]amino}-8-azabicyclo[3.2.1]oct-8-yl)-N-[(2S)-1,1,1-trifluoropropan-2-yl]pyridine-3-carboxamide] and `CC(C)(O)CNC(=O)c1ccc(N2[C@@H]3CC[C@H]2C[C@@H](NC(=O)C(C)(C)Oc2ccc(Cl)cc2Cl)C3)nc1` [Example 396, 6-(3-endo-{[2-(2,4-dichlorophenoxy)-2-methylpropanoyl]amino}-8-azabicyclo[3.2.1]oct-8-yl)-n-(2-hydroxy-2-methylpropyl)pyridine-3-carboxamide] cannot be ordered by IC50: < 200 nM for the first, < 200 nM for the second.

`CC(C)(Oc1ccc(-c2ccc(F)cc2)cc1Cl)C(=O)N[C@H]1C[C@H]2CC[C@@H](C1)N2c1ccc(C(N)=O)cn1` [Example 282, 6-[3-endo-({2-[(3-chloro-4′-fluorobiphenyl-4-yl)oxy]-2-methylpropanoyl}amino)-8-azabicyclo[3.2.1]oct-8-yl]pyridine-3-carboxamide] and `CC(C)(Oc1ccc(Cl)cc1-c1ccccc1)C(=O)N[C@H]1C[C@H]2CC[C@@H](C1)N2c1ccc(C(N)=O)cn1` [Example 322, 6-[3-endo-({2-[(5-chlorobiphenyl-2-yl)oxy]-2-methylpropanoyl}amino)-8-azabicyclo[3.2.1]oct-8-yl]pyridine-3-carboxamide] cannot be ordered by IC50: < 200 nM for the first, < 200 nM for the second.

`CC(C)(Oc1cc(F)c(Cl)cc1Cl)C(=O)N[C@H]1C[C@H]2CC[C@@H](C1)N2c1ccc(C(N)=O)cn1` [Example 76, 6-[3-endo-({2-[(2,4-dichloro-5-fluorophenyl)oxy]-2-methylpropanoyl}amino)-8-azabicyclo[3.2.1]oct-8-yl]pyridine-3-carboxamide] and `CC(C)(Oc1cc(OC(C)(C)C(=O)N[C@H]2C[C@H]3CC[C@@H](C2)N3c2ccc(C(=O)NCC(F)(F)F)cn2)c(Cl)cc1Cl)C(N)=O` [Example 426, 6-{3-endo-[(2-{5-[(1-amino-2-methyl-1-oxopropan-2-yl)oxy]-2,4-dichlorophenoxy}-2-methylpropanoyl)amino]-8-azabicyclo[3.2.1]oct-8-yl}-N-(2,2,2-trifluoroethyl)pyridine-3-carboxamide] cannot be ordered by IC50: < 200 nM for the first, < 200 nM for the second.

`CC(C)(Oc1ccc(Cl)cc1Cl)C(=O)N[C@H]1C[C@H]2CC[C@@H](C1)N2c1ccc(NC(=O)C2CC2)cn1` [Example 92, N-{6-[3-endo-({2-[(2,4-dichlorophenyl)oxy]-2-methylpropanoyl}amino)-8-azabicyclo[3.2.1]oct-8-yl]pyridin-3-yl}cyclopropanecarboxamide] and `CC(C)(Oc1ccc(Cl)cc1OC(F)(F)F)C(=O)NC1CC2CCC(C1)N2c1ccc(C(=O)N2CCC(O)C2)cn1` (stereo not drawn) [Example 454, 2-[4-chloro-2-(trifluoromethoxy)phenoxy]-n-(8-{5-[(3-hydroxypyrrolidin-1-yl)carbonyl]pyridin-2-yl}-8-azabicyclo[3.2.1]oct-3-endo-yl)-2-methylpropanamide] cannot be ordered by IC50: < 200 nM for the first, < 200 nM for the second.
